Results taken from patent US11339128B2 (Firmenich Incorporated, priority 2014, dated 2022).

Key:
T1R2/T1R3 taste receptor = biological target: T1, T1R2/T1R3 taste receptor (Homo sapiens, UniProt Q7RTX0+Q8TE23); assay: Receptor-based assay: sweetener EC50 enhancement ratio with and without test compound; type: cell-based; settings: for Sucrose Enhancement EC50 Ratio: sweetener sucrose; for Sucralose Enhancement EC50 Ratio: sweetener sucralose; for Fructose Enhancement EC50 Ratio: sweetener fructose
T1 sequence (Q8TE23 20-839): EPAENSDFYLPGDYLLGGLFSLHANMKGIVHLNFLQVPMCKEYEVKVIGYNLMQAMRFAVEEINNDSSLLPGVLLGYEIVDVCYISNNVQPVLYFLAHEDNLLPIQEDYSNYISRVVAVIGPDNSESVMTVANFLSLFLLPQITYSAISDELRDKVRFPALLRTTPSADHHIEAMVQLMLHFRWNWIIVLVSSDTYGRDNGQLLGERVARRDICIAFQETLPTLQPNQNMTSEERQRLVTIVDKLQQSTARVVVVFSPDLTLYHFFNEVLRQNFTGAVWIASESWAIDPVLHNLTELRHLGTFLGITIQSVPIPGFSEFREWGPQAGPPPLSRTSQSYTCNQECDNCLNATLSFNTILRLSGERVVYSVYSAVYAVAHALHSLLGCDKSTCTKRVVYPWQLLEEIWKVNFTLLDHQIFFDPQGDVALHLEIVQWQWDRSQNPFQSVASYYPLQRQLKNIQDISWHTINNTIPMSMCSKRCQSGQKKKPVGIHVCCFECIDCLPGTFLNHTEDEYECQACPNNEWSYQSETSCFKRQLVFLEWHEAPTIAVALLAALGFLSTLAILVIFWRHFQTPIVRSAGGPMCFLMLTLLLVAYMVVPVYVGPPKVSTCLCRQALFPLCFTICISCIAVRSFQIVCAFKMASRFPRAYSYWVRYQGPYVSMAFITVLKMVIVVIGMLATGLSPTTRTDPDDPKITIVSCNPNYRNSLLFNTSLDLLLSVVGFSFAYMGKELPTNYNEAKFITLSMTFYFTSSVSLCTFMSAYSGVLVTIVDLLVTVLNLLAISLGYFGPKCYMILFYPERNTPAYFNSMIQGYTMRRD
T1 sequence (Q7RTX0 21-852): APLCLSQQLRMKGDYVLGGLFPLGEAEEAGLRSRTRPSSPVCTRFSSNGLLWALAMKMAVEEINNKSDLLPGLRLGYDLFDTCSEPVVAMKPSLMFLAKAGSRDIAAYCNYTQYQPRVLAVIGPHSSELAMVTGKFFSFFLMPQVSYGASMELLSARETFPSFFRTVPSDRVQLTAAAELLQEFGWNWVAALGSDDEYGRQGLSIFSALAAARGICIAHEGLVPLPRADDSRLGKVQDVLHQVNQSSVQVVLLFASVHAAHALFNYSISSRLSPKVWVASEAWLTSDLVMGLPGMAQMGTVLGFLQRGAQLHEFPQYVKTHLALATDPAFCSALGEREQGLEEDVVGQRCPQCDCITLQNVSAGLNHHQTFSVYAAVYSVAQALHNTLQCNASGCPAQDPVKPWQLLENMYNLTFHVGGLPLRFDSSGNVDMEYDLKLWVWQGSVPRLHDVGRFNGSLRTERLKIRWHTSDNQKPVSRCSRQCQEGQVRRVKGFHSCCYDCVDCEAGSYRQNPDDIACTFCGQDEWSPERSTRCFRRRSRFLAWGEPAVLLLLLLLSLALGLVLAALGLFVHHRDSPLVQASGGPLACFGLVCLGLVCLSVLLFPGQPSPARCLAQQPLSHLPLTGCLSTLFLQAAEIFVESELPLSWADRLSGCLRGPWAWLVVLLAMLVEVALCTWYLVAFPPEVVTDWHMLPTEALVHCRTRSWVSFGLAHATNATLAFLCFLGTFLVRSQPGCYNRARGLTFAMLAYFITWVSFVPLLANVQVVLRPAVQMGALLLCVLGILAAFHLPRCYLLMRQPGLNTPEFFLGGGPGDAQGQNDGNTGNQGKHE
Outline: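 Sweetener (sucrose, sucralose, fructose) EC50 measured alone and with 1, 3, 10 or 50 μM test compound. Enhancement ratio = EC50 without/with compound; A = >1 to <10, B = 10–20, C = >20.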

[1] = Sensory paired-comparison sweetness test of sweetener (sucrose or high-fructose corn syrup) with test compound; type: in vivo, human; settings: test compound 10 ppm or less with 6% sucrose, low sodium buffer pH 7.1; sucrose-alone concentration of equivalent perceived sweetness
Method: Test samples containing either a sweetener (sucrose or high-fructose corn syrup) alone or in combination with a test compound were presented in pairs to a group of panelist who were asked to determine which of the samples was sweeter. Subjects refrained from eating or drinking (except water) for at least 1 hour prior to the test. Subjects rinsed with water several times to clean the mouth. The samples within a paired comparison test were presented in a randomized, counterbalanced order. Panelists had up to a 1 minute delay between taste tests to clear the mouth of any tastes. Binomial probability tables were used to determine the probability of the correct number of responses occurring for each test at alpha-0.05.
Stock solutions of test compounds were prepared at 1000× final concentration with ethanol to ensure dispersion in solution. Test compound samples including sucrose were prepared by diluting the stock solutions in a low sodium buffer (0.952 g of KCl, 5.444 g of Na2HPO4, and 0.952 g of KH2PO4 in deionized ultrafiltered water) at pH 7.1 and containing sucrose. Test compound samples including high fructose corn syrup were prepared by diluting the stock solutions in the low sodium buffer at pH 2.8 (using citric acid to adjust the pH) and containing high fructose corn syrup. Control samples were balanced to 0.1% ethanol final.
In samples containing the test compound, the test compound was present at a concentration of 10 ppm or less and the concentration of sucrose was 6%. This table indicates the sucrose-alone concentration having a perceived sweetness intensity equivalent to the sweetness intensity of the combination of test compound and sucrose. An “A” value indicates an equivalent sucrose concentration greater than 6% and less than 10%. A “B” value indicates an equivalent sucrose concentration of 10% or greater. […]

| Structure (SMILES) | Sucralose Enhancement EC50 Ratio (T1R2/T1R3 taste receptor; 3 μM test compound) | Sucralose Enhancement EC50 Ratio (T1R2/T1R3 taste receptor; 10 μM test compound) | Sucrose Enhancement EC50 Ratio (T1R2/T1R3 taste receptor; 10 μM test compound) | Sucrose Enhancement EC50 Ratio (T1R2/T1R3 taste receptor; 1 μM test compound) | Sucrose Enhancement EC50 Ratio (T1R2/T1R3 taste receptor; 3 μM test compound) | Fructose Enhancement EC50 Ratio (T1R2/T1R3 taste receptor; 10 μM test compound) | Equivalent Sucrose Conc. [1] | Fructose Enhancement EC50 Ratio (T1R2/T1R3 taste receptor; 50 μM test compound) |
| --- | --- | --- | --- | --- | --- | --- | --- | --- |
| CCc1nc2cccc(O[C@H]3CC[C@H](C)CC3)c2c(N)c1C(=O)O [Compound 201] | – | – | – | A (an enhancement ratio of greater than 1 and less than 10) | B (an enhancement ratio from 10 to 20) | – | A (an equivalent sucrose concentration greater than 6% and less than 10%) | – |
| Cc1nc2cccc(O[C@H]3CC[C@H](NC(=O)COC4CCCC4)CC3)c2c(N)c1C(=O)O [Compound 310] | B (an enhancement ratio from 10 to 20) | A (an enhancement ratio of greater than 1 and less than 10) | – | C (an enhancement ratio greater than 20) | – | A (an enhancement ratio of greater than 1 and less than 10) | B (an equivalent sucrose concentration of 10% or greater) | – |
| Cc1nc2cccc(O[C@H]3CC[C@H](NC(=O)COC4CCCCC4)CC3)c2c(N)c1C(=O)O [Compound 311] | A (an enhancement ratio of greater than 1 and less than 10) | – | – | B (an enhancement ratio from 10 to 20) | A (an enhancement ratio of greater than 1 and less than 10) | – | A (an equivalent sucrose concentration greater than 6% and less than 10%) | – |
| CCCOCC(=O)N[C@H]1CC[C@H](Oc2cccc3nc(C)c(C(=O)O)c(N)c23)CC1 [Compound 305] | – | C (an enhancement ratio greater than 20) | A (an enhancement ratio of greater than 1 and less than 10) | B (an enhancement ratio from 10 to 20) | A (an enhancement ratio of greater than 1 and less than 10) | – | B (an equivalent sucrose concentration of 10% or greater) | – |
| Cc1nc2cccc(O[C@H]3CC[C@H](O)CC3)c2c(N)c1C(=O)O [Compound 107] | – | – | B (an enhancement ratio from 10 to 20) | A (an enhancement ratio of greater than 1 and less than 10) | A (an enhancement ratio of greater than 1 and less than 10) | – | – | – |
| Cc1nc2cccc(O[C@H]3CC[C@@H](C)CC3)c2c(N)c1C(=O)O [Compound 102] | – | – | B (an enhancement ratio from 10 to 20) | A (an enhancement ratio of greater than 1 and less than 10) | A (an enhancement ratio of greater than 1 and less than 10) | – | – | – |
| CCOCCOCC(=O)N[C@H]1CC[C@H](Oc2cccc3nc(C)c(C(=O)O)c(N)c23)CC1 [Compound 332] | – | – | – | A (an enhancement ratio of greater than 1 and less than 10) | B (an enhancement ratio from 10 to 20) | – | – | – |
| Cc1nc2cccc(O[C@H]3CC[C@H](NC(=O)Cc4c[nH]cn4)CC3)c2c(N)c1C(=O)O [Compound 321] | – | – | – | A (an enhancement ratio of greater than 1 and less than 10) | A (an enhancement ratio of greater than 1 and less than 10) | – | – | – |
| CCc1nc2cccc(O[C@H]3CC[C@H](CO)CC3)c2c(N)c1C(=O)O [Compound 206] | – | – | A (an enhancement ratio of greater than 1 and less than 10) | A (an enhancement ratio of greater than 1 and less than 10) | A (an enhancement ratio of greater than 1 and less than 10) | – | – | – |
| Cc1cc(N[C@H]2CC[C@H](Oc3cccc4nc(C)c(C(=O)O)c(N)c34)CC2)nc(N)n1 [Compound 712] | B (an enhancement ratio from 10 to 20) | C (an enhancement ratio greater than 20) | C (an enhancement ratio greater than 20) | A (an enhancement ratio of greater than 1 and less than 10) | B (an enhancement ratio from 10 to 20) | A (an enhancement ratio of greater than 1 and less than 10) | – | A (an enhancement ratio of greater than 1 and less than 10) |

Second part, led by results:

| Sucralose Enhancement EC50 Ratio (T1R2/T1R3 taste receptor; 3 μM test compound) | Sucralose Enhancement EC50 Ratio (T1R2/T1R3 taste receptor; 10 μM test compound) | Sucrose Enhancement EC50 Ratio (T1R2/T1R3 taste receptor; 10 μM test compound) | Structure (SMILES) | Sucrose Enhancement EC50 Ratio (T1R2/T1R3 taste receptor; 1 μM test compound) | Sucrose Enhancement EC50 Ratio (T1R2/T1R3 taste receptor; 3 μM test compound) | Fructose Enhancement EC50 Ratio (T1R2/T1R3 taste receptor; 10 μM test compound) | Equivalent Sucrose Conc. [1] | Fructose Enhancement EC50 Ratio (T1R2/T1R3 taste receptor; 50 μM test compound) |
| --- | --- | --- | --- | --- | --- | --- | --- | --- |
| B (an enhancement ratio from 10 to 20) | B (an enhancement ratio from 10 to 20) | B (an enhancement ratio from 10 to 20) | Cc1nc2cccc(O[C@H]3CC[C@H](NC(=O)COC4CCC4)CC3)c2c(N)c1C(=O)O [Compound 309] | B (an enhancement ratio from 10 to 20) | A (an enhancement ratio of greater than 1 and less than 10) | A (an enhancement ratio of greater than 1 and less than 10) | B (an equivalent sucrose concentration of 10% or greater) | – |
| B (an enhancement ratio from 10 to 20) | – | – | Cc1nc2cccc(O[C@H]3CC[C@H](NC(=O)COCC(C)C)CC3)c2c(N)c1C(=O)O [Compound 307] | A (an enhancement ratio of greater than 1 and less than 10) | C (an enhancement ratio greater than 20) | – | B (an equivalent sucrose concentration of 10% or greater) | – |
| – | B (an enhancement ratio from 10 to 20) | B (an enhancement ratio from 10 to 20) | CCSCC(=O)N[C@H]1CC[C@H](Oc2cccc3nc(C)c(C(=O)O)c(N)c23)CC1 [Compound 318] | A (an enhancement ratio of greater than 1 and less than 10) | A (an enhancement ratio of greater than 1 and less than 10) | – | – | A (an enhancement ratio of greater than 1 and less than 10) |
| – | – | C (an enhancement ratio greater than 20) | Cc1nc2cccc(O[C@H]3CC[C@H](NC(=O)COCCO)CC3)c2c(N)c1C(=O)O [Compound 334] | A (an enhancement ratio of greater than 1 and less than 10) | A (an enhancement ratio of greater than 1 and less than 10) | A (an enhancement ratio of greater than 1 and less than 10) | – | – |
